The experiment has as its target T1, HCV NS3/4A (wild-type) (Hepatitis C virus genotype 1b, UniProt O92972).
T1 construct: The NS3/4A construct represented the individual NS3 proteinase domain N-terminally fused with an NS4A co-factor; 6xHis; purchased AnaSpec (Fremont, CA)
The experiment is described as follows: NS3/4A activity assay with FRET peptide substrate, wild-type enzyme. It is filed as biochemical, HCV genotype 1b, strain HC-J4. The note with it: wild-type NS3/4A 10 nM, Ac-DE-D(Edans)-EE-Abu-ψ-[COO]-AS-K(Dabsyl)-NH2 10 µM, 30 min pre-incubation; read-out: NS3/4A IC50. From the text:
Reagents were purchased from Sigma unless indicated otherwise. The FRET substrate Ac-DE-D(Edans)-EE-Abu-ψ-[COO]-AS-K(Dabsyl)-NH2, purified recombinant wild-type NS3/4A from HCV genotype 1b, strain HC-J4, and the mutants with the V36M, R155K, A156T, D168A and V170A resistance mutations were from AnaSpec (Fremont, CA). The NS3/4A construct represented the individual NS3 proteinase domain N-terminally fused with an NS4A co-factor and tagged with a 6xHis tag. NS3/4A was in active form and the pre-activation by pep-4A or pep4AK was not necessary. Pyroglutamic acid-Arg-Thr-Lys-Arg-7-amino-4-methylcoumarin was from Peptides International (Louisville, KY). West Nile virus NS2B-NS3 proteinase (strain NY99) was expressed, purified and refolded to restore its functional activity as described earlier. The pET15b-Den2-CF40-Gly-NS3pro 185 plasmid encoding the Dengue virus type 2 NS2B-NS3 protease was a kind gift of Dr. Subhash Vasudevan (Program in Emerging Infectious Diseases, DUKE-NUS Graduate Medical School, Singapore). DV NS2B-NS3 proteinase was expressed purified and refolded to restore its functional activity as described previously, [70]. The expression of the soluble C-terminally truncated human furin construct in Sf9 insect cells (an ovarian cell line from fall armyworm Spodoptera frugiperda; Invitrogen, Carlsbad, CA) infected with the recombinant baculovirus and purification of soluble furin from the medium were described earlier. Original human hepatocarcinoma Huh7 cells were obtained from ATCC (Manassas, VA).
The NS3/4A activity assay was performed at 37°C in triplicate in wells of a 96-well plate in 0.2 ml 50 mM HEPES, pH 7.5, containing 100 mM NaCl, 10 mM DTT, 20% glycerol, the Ac-DE-D(Edans)-EE-Abu-ψ-[COO]-AS-K(Dabsyl)-NH2 substrate (10 µM) and the NS3/4A enzyme (10 nM). Reaction velocity was monitored continuously at λex = 355 nm and λem = 500 nm for 10 min using a Spectramax Gemini EM fluorescence spectrophotometer (Molecular Devices, Sunnyvale, CA) and the initial rate of reaction v was recorded for each reaction. There was no significant additional absorption by compounds 1–8 we identified, which might interfere with NS3/4A assay. Compound stock solutions (10 mM) were made in 100% DMSO. Stocks were then diluted using the assay buffer. As a result, the final DMSO concentration was always below 1% in the assay reactions.
To measure the inhibitory potency of the compounds, their increasing concentrations were pre-incubated with the individual proteinases in the corresponding buffer for 30 min at ambient temperature. At least, 7–9 different concentrations were used for each inhibitor. The residual activity of the enzymes was then measured as above. The IC50 values of the inhibitory compounds were calculated by determining the concentrations of the compounds needed to inhibit 50% of the enzyme activity against the peptide substrate. GraphPad Prism was used as fitting software.
T1 sequence (O92972 1027-1208): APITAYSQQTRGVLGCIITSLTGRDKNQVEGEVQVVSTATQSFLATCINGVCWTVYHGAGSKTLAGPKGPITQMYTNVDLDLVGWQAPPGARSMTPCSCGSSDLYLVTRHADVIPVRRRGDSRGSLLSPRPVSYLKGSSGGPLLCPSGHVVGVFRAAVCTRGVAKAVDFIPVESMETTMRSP
Regarding `O=C(Nc1ccccc1)c1cc(S(=O)(=O)Nc2nc3ncccc3[nH]2)c(SSc2cc(Cl)c(C(=O)Nc3ccccc3)cc2S(=O)(=O)Nc2nc3ncccc3[nH]2)cc1Cl` [Compound 1], the IC50 was 183 nM. With `Clc1ccc(OCc2nn3c(CCc4nnc5sc(COc6ccc(Cl)cc6)nn45)nnc3s2)cc1` [Compound 2] the figure was 300 nM; with `Cc1n[nH]c(=S)n1Nc1nc(SCc2ccccc2)nc2n[nH]c(Cc3nn[nH]n3)c12` [Compound 3], 360 nM; with `Clc1ccc(Nc2nc(SCc3ccccc3)nc3n[nH]c(Cc4nc5ccccc5s4)c23)cc1` [Compound 5], 380 nM. With `S=c1[nH]nc(Nc2nc(SCc3ccccc3)nc3n[nH]c(Cc4nn[nH]n4)c23)s1` [Compound 6], the IC50 amounted to 950 nM.

Source of the values: article PMC3388044, “Probing of Exosites Leads to Novel Inhibitor Scaffolds of HCV NS3/4A Proteinase” (PLoS ONE, 2012).
